Laboratory results taken from ChEMBL document CHEMBL1938294, “DNA binding and anticancer activity of naphthalimides with 4-hydroxyl-alkylamine side chains at different lengths” (Bioorg Med Chem Lett, 2012).
Active and inactive are the calls of the source. No cut-off for these calls is given here.

Key:
[1] = tested on: Nucleic Acid; test: Binding affinity to calf thymus DNA by UV-Vis spectroscopy; type: nucleic-acid assay; details: Bos taurus
[2] = tested on: Nucleic Acid; test: Binding affinity to calf thymus DNA assessed as bathochromic shift at 1 x 10^-5 M by UV-Vis spectroscopy; type: nucleic-acid assay; details: Bos taurus
[3] = tested on: Nucleic Acid; test: Binding affinity to calf thymus DNA assessed as hypochromicity at 1 x 10^-5 M by UV-Vis spectroscopy; type: nucleic-acid assay; details: Bos taurus
[4] = tested on: Nucleic Acid; test: Binding affinity to calf thymus DNA assessed as intercalation at 1 x 10^-5 M by fluorescence spectroscopy; type: nucleic-acid assay; details: Bos taurus
[5] = tested on: Nucleic Acid; test: Binding affinity to calf thymus DNA assessed as efficiency of fluorescence enhancement at 1 x 10^-5 M by fluorescence spectroscopy; type: nucleic-acid assay; details: Bos taurus
[6] = tested on: Nucleic Acid; test: Binding affinity to calf thymus DNA assessed as intercalation at 2 x 10^-5 M by CD spectroscopy; type: nucleic-acid assay; details: Bos taurus
[7] = tested on: Nucleic Acid; test: Binding affinity to calf thymus DNA assessed as melting temperature at 5 x 10^-6 M by thermal denaturation assay (reference value: 68.4 degC); type: nucleic-acid assay; details: Bos taurus
[8] = tested on: Nucleic Acid; test: Binding affinity to calf thymus DNA assessed as change in melting temperature at 5 x 10^-6 M by thermal denaturation assay; type: nucleic-acid assay; details: Bos taurus
[9] = tested on: Bel-7402; test: Cytotoxicity against human Bel7402 cells by MTT assay; type: functional, cell-based
[10] = tested on: HL-60; test: Cytotoxicity against human HL60 cells by MTT assay; type: functional, cell-based

K [1] [×10⁴ /M] | Activity [2] [nm] | Activity [3] [%] | Activity [4] | KSV [5] [×10³ /M] | Activity [6] | Tm [7] [°C] | ΔTm [8] [°C] | Structure (SMILES) | IC50 [9] [µM] | IC50 [10] [µM]
1.2 | 453 | 31 | Active | 4.36 | Active | 72.2 | 3.8 | CN(C)CCN1C(=O)c2cccc3c(NCCCCCO)ccc(c23)C1=O | 9.17 | 17.7
1.1 | 453 | 31 | Active | 7.12 | Active | 71.8 | 3.4 | CN(C)CCN1C(=O)c2cccc3c(NCCCCCCO)ccc(c23)C1=O | 17.5 | 20.5

The remaining lines, values behind:

Structure (SMILES) | K [1] [×10⁴ /M] | Activity [2] [nm] | Activity [3] [%] | Activity [4] | KSV [5] [×10³ /M] | Activity [6] | Tm [7] [°C] | ΔTm [8] [°C] | IC50 [9] [µM] | IC50 [10] [µM]
CN(C)CCN1C(=O)c2cccc3c(NCCCCO)ccc(c23)C1=O | 0.74 | 452 | 30 | Active | 1.15 | Active | 71.2 | 2.8 | 5.57 | 11.2
CN(C)CCN1C(=O)c2cccc3c(NCCO)ccc(c23)C1=O | 1.44 | 447 | 31 | Active | 3.12 | Active | 71 | 2.6 | 30.9 | 25.9
CN(C)CCN1C(=O)c2cccc3c(NCCCO)ccc(c23)C1=O | 1.03 | 453 | 31 | Active | 4.03 | Active | 71.9 | 3.5 | 33.5 | 38.5
